{"source": "paper PMC6612245", "about": "(Journal of the American Chemical Society, 2019)", "format_in_all_cases": "biochemical", "key": {"ForC": {"biological_target": "T1, ForC (Streptomyces kaniharaensis, UniProt A0A5S9FY43)", "T1 sequence (A0A5S9FY43 1-333)": "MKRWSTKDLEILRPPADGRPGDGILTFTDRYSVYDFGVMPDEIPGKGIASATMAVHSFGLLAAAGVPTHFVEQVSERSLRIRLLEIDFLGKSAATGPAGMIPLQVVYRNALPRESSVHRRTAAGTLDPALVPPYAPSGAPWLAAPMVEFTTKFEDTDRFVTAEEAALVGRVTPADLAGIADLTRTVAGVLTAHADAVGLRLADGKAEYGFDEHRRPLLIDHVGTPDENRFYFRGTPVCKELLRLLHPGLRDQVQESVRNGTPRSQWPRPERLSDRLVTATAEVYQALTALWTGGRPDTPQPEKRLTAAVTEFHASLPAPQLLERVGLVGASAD", "experiment": "anion exchange HPLC, substrate consumption", "conditions": "L-aspartate and ATP; 4 h"}, "EcPurH [1]": {"biological_target": "T2, EcPurH (Escherichia coli, UniProt P15639)", "T2 sequence (P15639 whole entry)": "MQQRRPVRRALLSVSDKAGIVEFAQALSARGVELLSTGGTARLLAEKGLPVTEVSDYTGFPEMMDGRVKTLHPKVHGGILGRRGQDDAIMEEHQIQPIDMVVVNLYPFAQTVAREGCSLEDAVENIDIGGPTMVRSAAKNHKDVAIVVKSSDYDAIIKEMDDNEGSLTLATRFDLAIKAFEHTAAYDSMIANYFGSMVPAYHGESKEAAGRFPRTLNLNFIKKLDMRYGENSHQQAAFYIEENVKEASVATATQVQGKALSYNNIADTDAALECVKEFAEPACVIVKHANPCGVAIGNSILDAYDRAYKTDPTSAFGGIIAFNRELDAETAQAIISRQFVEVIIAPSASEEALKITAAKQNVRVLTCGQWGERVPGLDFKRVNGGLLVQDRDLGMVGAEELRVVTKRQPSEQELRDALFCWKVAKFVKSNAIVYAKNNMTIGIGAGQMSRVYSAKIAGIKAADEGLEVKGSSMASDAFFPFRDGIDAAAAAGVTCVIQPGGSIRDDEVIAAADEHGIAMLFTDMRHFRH", "experiment": "enzymatic preparation of 6b", "conditions": "formylation to 6b"}, "SkPurH": {"biological_target": "T3, SkPurH (Streptomyces kaniharaensis, UniProt A0A6N7KQI7)", "T3 sequence (A0A6N7KQI7 24-525)": "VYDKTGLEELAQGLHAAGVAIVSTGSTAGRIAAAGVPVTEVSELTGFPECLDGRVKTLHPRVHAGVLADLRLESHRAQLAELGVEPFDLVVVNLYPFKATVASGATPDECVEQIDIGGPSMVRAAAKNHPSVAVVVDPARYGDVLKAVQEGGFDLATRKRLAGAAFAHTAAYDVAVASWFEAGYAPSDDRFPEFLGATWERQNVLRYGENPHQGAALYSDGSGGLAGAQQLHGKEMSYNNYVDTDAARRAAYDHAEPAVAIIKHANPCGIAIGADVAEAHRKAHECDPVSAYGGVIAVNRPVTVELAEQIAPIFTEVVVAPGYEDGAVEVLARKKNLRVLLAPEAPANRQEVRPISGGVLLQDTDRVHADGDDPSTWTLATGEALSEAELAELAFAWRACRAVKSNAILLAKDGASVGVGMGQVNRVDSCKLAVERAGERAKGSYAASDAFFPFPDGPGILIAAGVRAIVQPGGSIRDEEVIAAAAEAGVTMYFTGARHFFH", "experiment": "HPLC of product 6b", "conditions": "N10-formyl-THF; formylation without cyclization; 1 h"}, "EcPurH [2]": {"biological_target": "T2, EcPurH", "experiment": "HPLC", "conditions": "cyclization to 7a"}, "ForH [3]": {"biological_target": "T4, ForH (Streptomyces kaniharaensis, UniProt A0A4V8H038)", "experiment": "HPLC of product 7a", "conditions": "cyclization to 7a; 10 min incubation"}, "ForH [4]": {"biological_target": "T4, ForH", "experiment": "HPLC of product 7b", "conditions": "cyclization to 7b; 10 min incubation"}}}
{"smiles": "Nc1c([C@@H]2O[C@H](COP(=O)(O)O)[C@@H](O)[C@H]2O)n[nH]c1C(=O)O", "note": "[3b]", "values": [{"measurement": "anion exchange HPLC, substrate consumption", "setting": "ForC", "value": "Incubation of 3b with ForC along with L-aspartate and ATP led to the production"}]}
{"smiles": "NC(=O)c1[nH]nc([C@@H]2O[C@H](COP(=O)(O)O)[C@@H](O)[C@H]2O)c1N", "note": "[5b]", "values": [{"measurement": "enzymatic preparation of 6b", "setting": "EcPurH [1]", "value": "6b was enzymatically prepared from 5b using E. coli PurH as the catalyst"}, {"measurement": "HPLC of product 6b", "setting": "SkPurH", "value": "incubation of 5b with S. kaniharaensis PurH (SkPurH) resulted in formylation of the pyrazolic amide"}]}
{"smiles": "NC(=O)c1ncn([C@@H]2O[C@H](COP(=O)(O)O)[C@@H](O)[C@H]2O)c1NC=O", "note": "[6a]", "values": [{"measurement": "HPLC (supplement)", "setting": "EcPurH [2]", "value": "6a could be processed to 7a, while 6b could not be converted to 7b"}, {"measurement": "HPLC of product 7a", "setting": "ForH [3]", "value": "ForH demonstrates cyclase activity towards both 6a and 6b"}]}
{"smiles": "NC(=O)c1[nH]nc([C@@H]2O[C@H](COP(=O)(O)O)[C@@H](O)[C@H]2O)c1NC=O", "note": "[6b]", "values": [{"measurement": "HPLC of product 7b", "setting": "ForH [4]", "value": "ForH demonstrates cyclase activity towards both 6a and 6b"}]}
